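Growth conditions: 96-well plates. Treatment: test compound, 48 hours, 5 concentrations. Analysis: linear interpolation between bracketing concentrations; unreached endpoints set to highest concentration. The concentration for 50% growth inhibition is given as GI50.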 Activity calls are given as the source filed them. No stated cut-off is given here; in the data, active = GI50 up to about 1.1 µM and inactive = higher. Where a SMILES comes first, the peptide text is derived from it. The star is where a group is joined. Boc = CC(C)(C)OC(=O)*; OBn = c1ccc(CO*)cc1
Columns and labels:
Experiment in all cases: growth of human tumour cells (NCI), 48 h
SNB-19 = tested on: SNB-19
HOP-62 = tested on: HOP-62
MCF7 = tested on: MCF7
NCI-H23 = tested on: NCI-H23
MDA-MB-435 = tested on: MDA-MB-435
786-0 = tested on: 786-0
LOX IMVI = tested on: LOX IMVI
SK-MEL-2 = tested on: SK-MEL-2
SW-620 = tested on: SW-620
OVCAR-3 = tested on: OVCAR-3
HCC 2998 = tested on: HCC 2998
IGROV-1 = tested on: IGROV-1
PC-3 = tested on: PC-3
KM12 = tested on: KM12
HT-29 = tested on: HT-29
T47D = tested on: T47D
SK-OV-3 = tested on: SK-OV-3
DU-145 = tested on: DU-145
Malme-3M = tested on: Malme-3M
NCI-H522 = tested on: NCI-H522

SMILES | GI50 (SNB-19) | GI50 (HOP-62) | GI50 (MCF7) | GI50 (NCI-H23) | GI50 (MDA-MB-435) | GI50 (786-0) | GI50 (LOX IMVI) | GI50 (SK-MEL-2) | GI50 (SW-620) | GI50 (OVCAR-3) | GI50 (HCC 2998) | GI50 (IGROV-1) | GI50 (PC-3) | GI50 (KM12) | GI50 (HT-29) | GI50 (T47D) | GI50 (SK-OV-3) | GI50 (DU-145) | GI50 (Malme-3M) | GI50 (NCI-H522)
Cc1ccccc1NC(=O)Cc1csc(N/N=C2\NC(=O)/C(=C/c3cccc([N+](=O)[O-])c3)S2)n1 | 16.1 µM (inactive) | 22.9 µM (inactive) | 41.8 µM (inactive) | 19.1 µM (inactive) | 19.8 µM (inactive) | 45.2 µM (inactive) | 30.3 µM (inactive) | 26.4 µM (inactive) | 40.6 µM (inactive) | 19.7 µM (inactive) | 14.3 µM (inactive) | 14.1 µM (inactive) | 16.6 µM (inactive) | 16.6 µM (inactive) | 34.7 µM (inactive) | 17.1 µM (inactive) | 53.1 µM (inactive) | 36.1 µM (inactive) |  | 
COc1cccc2c1C(=O)c1c(O)c3c(c(O)c1C2=O)C[C@H](O)C[C@@H]3OC1CC(N)C(O)C(C)O1 (stereo not given in full) | 3.36 µM (inactive) | 1.49 µM (inactive) | < 0.01 µM (active) | 1.06 µM (active) | 1.82 µM (inactive) | 1.32 µM (inactive) | 0.229 µM (active) | 2.02 µM (inactive) |  | 1.85 µM (inactive) |  | 1.57 µM (inactive) | 2.09 µM (inactive) | 0.811 µM (active) | 2.09 µM (inactive) | 1.21 µM (inactive) | 2.13 µM (inactive) | 1.76 µM (inactive) | 0.843 µM (active) | 1.57 µM (inactive)
O=C(NCCNCCNC(=O)C(F)(F)F)C(F)(F)F | > 100 µM (inactive) | > 100 µM (inactive) | > 100 µM (inactive) | > 100 µM (inactive) | > 100 µM (inactive) | > 100 µM (inactive) | > 100 µM (inactive) | > 100 µM (inactive) | > 100 µM (inactive) | > 100 µM (inactive) | > 100 µM (inactive) | > 100 µM (inactive) | > 100 µM (inactive) | > 100 µM (inactive) | > 100 µM (inactive) | > 100 µM (inactive) | > 100 µM (inactive) | > 100 µM (inactive) | > 100 µM (inactive) | 
CC1=NNC(=O)C1C1(C(=O)O)CC(c2c[nH]c3ccccc23)=NC(=S)N1 (stereo not given) | 29.3 µM (inactive) | 20 µM (inactive) |  | 22.1 µM (inactive) | 35.5 µM (inactive) | 28.3 µM (inactive) | 17.5 µM (inactive) | 18.4 µM (inactive) | 38.5 µM (inactive) | 18.5 µM (inactive) |  | 0.224 µM (active) | 27.5 µM (inactive) | 15.2 µM (inactive) | 26.3 µM (inactive) | 29 µM (inactive) | 32.1 µM (inactive) | 35.6 µM (inactive) | 19 µM (inactive) | 20 µM (inactive)
COc1ccc(S(=O)(=O)Nc2ccc(-c3csc(N4C(=O)/C(=C/C=C\c5ccccc5)N=C4c4ccccc4)n3)cc2)cc1Cl | 33.7 µM (inactive) | 31.3 µM (inactive) | 32.4 µM (inactive) | 18.9 µM (inactive) | 22.8 µM (inactive) | 31.3 µM (inactive) | 19.8 µM (inactive) | 22.6 µM (inactive) | 43 µM (inactive) | 26.7 µM (inactive) |  | 19.9 µM (inactive) | 31.3 µM (inactive) | 29 µM (inactive) | 56.8 µM (inactive) | 19.5 µM (inactive) | 65.3 µM (inactive) | 31.8 µM (inactive) | 20.2 µM (inactive) | 18.5 µM (inactive)
CCCSc1ccc2[nH]c(/N=C/c3ccccc3)cc2c1 |  |  |  | 41.7 µM (inactive) | 5.75 µM (inactive) | 19.1 µM (inactive) | 17.4 µM (inactive) | 16.6 µM (inactive) | 23.1 µM (inactive) | 22.1 µM (inactive) |  | 31.8 µM (inactive) | 34.1 µM (inactive) |  | 22.3 µM (inactive) | 48 µM (inactive) |  | 30.5 µM (inactive) | 16.6 µM (inactive) | 15.6 µM (inactive)
CC(C)CC(NC(=O)C(Cc1ccccc1)NC(=O)C(Cc1ccccc1)NC(=O)OC(C)(C)C)C(=O)OCc1ccccc1 (stereo not drawn) (Boc-Phe-Phe-Leu-OBn; configuration not given here) | > 100 µM (inactive) | > 100 µM (inactive) | > 100 µM (inactive) | > 100 µM (inactive) | > 100 µM (inactive) | > 100 µM (inactive) | > 100 µM (inactive) | > 100 µM (inactive) | > 100 µM (inactive) | > 100 µM (inactive) |  | > 100 µM (inactive) | > 100 µM (inactive) | > 100 µM (inactive) | > 100 µM (inactive) | > 100 µM (inactive) | > 100 µM (inactive) | > 100 µM (inactive) | > 100 µM (inactive) | > 100 µM (inactive)

Source: ChEMBL document CHEMBL1201862, “PubChem BioAssay data set” (2004)
